Among the data in PubChem BioAssay AID179 (DTP/NCI, 2004) are EC50, IC50 and outcome values, retold here.

In this test the test system is CEM cells HIV-1 protection, formazan growth assay. Briefly: NCI AIDS Antiviral Assay. Conditions: for IC50: measured here: growth of uninfected CEM cells. Summed up:
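Protection of CEM cells against HIV-1 measured as cell growth via soluble formazan read-out, with five concentrations tested on both infected and uninfected cells; failure to protect may reflect toxicity.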

Where “and” joins values, the source holds several entries; their conditions need not be identical. Equal entries are not always repeated. Calls of active or inactive are those of the source.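 Rule for the calls: active = compounds giving half or more protection of infected cells from virus-caused growth loss, again on retest; inactive = the rest.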

Broadly, the EC50 is the concentration at which the effect is half-maximal. The term IC50 denotes the concentration needed to halve the response being measured. On to `COc1ccc(C2C(Cl)C(=O)N2NC(=O)c2ccc(NC(C)=O)cc2)cc1OC` (stereo not given), for which the EC50 was more than 200 µM and the 50% inhibitory concentration (IC50) was more than 200 µM. Take `NC(=S)N/N=C1\CCc2ccccc2C1`: the EC50 is more than 575 µM and the IC50 was determined as 15.8 µM. On the same counts, the results for `COC1/C=C/OC2(C)Oc3c(C)c(O)c4c(O)c(c(/C=N/N5C(C)CN(Cc6ccc(O)cc6)CC5C)c(O)c4c3C2=O)NC(=O)C(C)=C/C=C/C(C)C(O)C(C)C(O)C(C)C(OC(C)=O)C1C` (stereo not given) are more than 200 µM and 7.94 µM. `COC1=C(C)C(=O)C(=O)c2ccc(C)nc21`: the outcome was inactive. In the case of `O=C(N=c1nc2ccccn2s1)c1ccccc1`, the EC50 was more than 53.7 µM and the half-maximal inhibitory concentration (IC50) was more than 53.7 µM.

`NC1CC2C3CCC2C1C3=O` (stereo not given): the EC50 is more than 200 µM and the IC50 is more than 200 µM.

As to `CC1CC2(S(=O)(=O)c3ccccc3)ON1CC2S(=O)(=O)c1ccccc1` (stereo not given), the outcome was inactive.

In the case of `O=c1[nH][nH]c(=O)c2ncccc12`, the EC50 was more than 200 µM and the IC50 was more than 200 µM. `COc1ccc(/C=C(/C#N)c2ccccc2)cc1`: the EC50 is more than 200 µM and the IC50 is 2.09 µM. In the case of `Cc1ccc(-c2n[nH]c(=O)[nH]2)cc1[N+](=O)[O-]`, the EC50 was more than 200 µM and the IC50 is more than 200 µM.

On to `CCCn1c(=O)c2nn3c(=O)n(CCC)c(=O)c3nn2c1=O`, for which the EC50 was more than 200 µM and the IC50 is more than 200 µM. Regarding `O=C(c1ccc(Cl)cc1Cl)N(C(=O)N1CCC(c2ccccc2)CC1)c1ccccc1`, the EC50 is more than 200 µM and the half-maximal inhibitory concentration (IC50) is more than 200 µM. Regarding `CN(C)CC1CN(C(=O)Nc2ccccc2)C(=N)O1` (stereo not given), the EC50 is more than 200 µM and the IC50 was more than 200 µM. Consider `CCCNCCCC(NC(C)=O)C(=O)NCc1ccccc1` (stereo not given), for which the EC50 is more than 813 µM and the IC50 was more than 813 µM.

Regarding `CCc1[nH]c(=O)c2oc3cc4ccccc4cc3c2c1C(=O)O`, the EC50 is more than 200 µM and the IC50 is more than 200 µM. As for `O=C(O)CCCCCSCCCCCCSCCCCCC(=O)O`, the EC50 is more than 50.1 µM and the IC50 was more than 50.1 µM. In the case of `CCCCN=NNc1cn(C2OC(CO)C(O)C2O)c(=O)[nH]c1=O` (stereo not given), the EC50 was more than 200 µM and the IC50 is more than 200 µM. Consider `CCOC(=O)c1c(C)cc(C)nc1[S][Sn]([Br])([Br])[S]c1nc(C)cc(C)c1C(=O)OCC`, for which the EC50 was 40.7 µM and the IC50 amounted to 51.3 µM. For `OCC(O)CC[CH2][Sn]([c]1ccccc1)([c]1ccccc1)[c]1ccccc1` (stereo not given), the result was inactive. As for `CC(=O)OCC(OC(C)=O)C(OC(C)=O)C(OC(C)=O)C(/C=N\Nc1nc2ccccc2c(=O)[nH]1)=N/Nc1nc2ccccc2c(=O)[nH]1` (stereo not given), the EC50 was more than 100 µM and the IC50 is more than 100 µM. As to `O=C1OC(=C(Cl)Cl)C2C3c4ccccc4C(c4ccccc43)C12` (stereo not given), the EC50 is more than 100 µM and the IC50 was found to be 47.9 µM. With `Oc1ccc2c(c1)-c1c(c3cc(O)ccc3n1CCN1CCOCC1)CC2`, the outcome was inactive. `S=c1[nH]nc2nc(Nc3ccccc3)nc(Nc3ccccc3)n12`: the EC50 is more than 21.4 µM and the concentration for half-maximal inhibition (IC50) was more than 21.4 µM. Take `CC(=O)OCCCCCn1cnc(C(N)=O)c1N`: the EC50 was more than 200 µM and the IC50 is more than 200 µM. Regarding `N#CSC1CCCCCCC1SC#N` (stereo not given), the EC50 is more than 200 µM and the IC50 was found to be 10.5 µM. On the same counts, the results for `CN(N)c1cc(=O)[nH]c(=O)[nH]1` are more than 200 µM and more than 200 µM. In the case of `O=C(O)C1Cc2c([nH]c3ccccc23)C=N1` (stereo not given), the result was inactive.

For `O=C1/C(=N\O)S(=O)(=O)c2ccccc21`, the outcome was inactive. Regarding `Cc1ccc2c(c1)C(C1Cc3c(C)cccc3C1=O)OC2=O` (stereo not given), the EC50 was more than 200 µM and the half-maximal inhibitory concentration (IC50) is more than 200 µM. For `O=C1NC(=O)[C@@H](OCC2CCCCC2)[C@@H]2OCC3OC(C(O)C3O)C12` (stereo not given in full), the EC50 was more than 200 µM and the IC50 was more than 200 µM.

`C/C=C/CC(C)C(O)C1C(=O)NC(CC)C(=O)N(C)CC(=O)N(C)C(CC(C)C)C(=O)NC(C(C)C)C(=O)N(C)C(CC(C)C)C(=O)NC(C)C(=O)NC(C)C(=O)N(C)C(CC(C)C)C(=O)N(C)C(CC(C)C)C(=O)N(C)C(C(C)C)C(=O)N1C` (stereo not given): the half-maximal effective concentration (EC50) was 3.39 µM and the IC50 stood at 8.13 µM. On the same counts, the results for `CCOC(=O)CC[P+](c1ccccc1)(c1ccccc1)c1ccccc1` are more than 200 µM and 21.4 µM. Regarding `CC(C)CC(=O)[O-].CC(C)CC(=O)[O-].N.N.N.N.[Co+3].[O-][Cl+3]([O-])([O-])[O-]`, the result was inactive.

For `CC(=Nc1ccccc1C(=O)[O-])c1c([O-])ccc2c(C)cc(=O)oc12.[Co+2].[OH3+].[OH3+].[OH3+]`, the EC50 is more than 3.24 µM and the IC50 is more than 3.24 µM. As for `Clc1ccc2c(NCCCCN=Cc3ccccc3)ccnc2c1`, the EC50 was more than 200 µM and the concentration for half-maximal inhibition (IC50) was found to be 26.9 µM. On the same counts, the results for `COc1ccc2c(c1)CCN1CCCc3ccccc3C21` (stereo not given) are more than 200 µM and 26.9 µM.

In the case of `O=c1[nH]c(=O)n(CCOc2ccc(Cl)cc2)cc1Nc1ccccc1`, the EC50 was more than 200 µM and the IC50 was determined as 135 µM. Consider `CN(C)CCCn1c2c(c3ccccc31)CCCCCC2`, for which the EC50 is more than 200 µM and the IC50 was 31.6 µM.

As for `Cc1ccc(C)n1-n1c2ccccc2c2ccccc21`, the EC50 is more than 100 µM and the IC50 is more than 100 µM. Take `Cc1ccc(SSc2ccc(C)cc2[N+](=O)[O-])c([N+](=O)[O-])c1`: the EC50 was more than 200 µM; the IC50 was 9.33 µM and 14.5 µM. On to `Clc1cc(Cl)cc(C=NC23CC4CC(CC(C4)C2)C3)c1`, for which the EC50 was more than 200 µM and the IC50 worked out at 44.7 µM. On the same counts, the results for `COc1ccc(N=N/C(=N\NC(=O)c2cc(Br)ccc2O)c2ccc(N(CCC#N)CCC#N)cc2OC)cc1` are more than 100 µM and 18.2 µM. On the same counts, the results for `O=Nc1ccc(O)cc1Cc1ccccc1` are more than 200 µM and 3.63 µM. On the same counts, the results for `COc1cc2c(cc1OC)[C@H](C(=O)O)[C@@H](c1ccc(OC(C)C)c(OC)c1)N(C)C2=O` are more than 200 µM and more than 200 µM. In the case of `CC(=O)Nc1cc2c(s1)CCC1CC(=O)NN=C21` (stereo not given), the EC50 is more than 200 µM and the IC50 was more than 200 µM.

For `NCCCc1nonc1C(=O)O`, the EC50 is more than 200 µM and the IC50 is more than 200 µM.

As to `CN(C)C(=O)Sc1nnc(C(C)(C)C)o1`, the EC50 was more than 200 µM and the IC50 was more than 100 µM. In the case of `Cc1cccc(/C=N/NC(=S)Nc2ccccc2)n1`, the EC50 was more than 200 µM and the IC50 worked out at 2 µM. As for `CCOC(=O)c1[nH]c2nc(SC)nc(NC)c2c1N`, the EC50 is more than 200 µM and the IC50 amounted to 129 µM.

Take `COc1cc(/C=C2\C(=O)N(c3ccccc3)C(c3ccccc3)S2(=O)=O)cc(OC)c1OC` (stereo not given): the EC50 was more than 20 µM and the IC50 amounted to 2.88 µM. On the same counts, the results for `COc1cc2oc(-c3ccc(O)cc3O)c(CC=C(C)C)c(=O)c2c(O)c1/C=C/C(C)C` are more than 200 µM and 4.79 µM. Take `CC[C@@H]1NC(C(=O)OC)Cc2c1[nH]c1ccccc21` (stereo not given in full): the outcome was inactive.

For `C1C2CC3C1C1C[S+]3CC21` (stereo not given), the EC50 was more than 380 µM and the IC50 is more than 380 µM.

For `Cc1ccc(/C=C2\CN(C)CC3C2=NN(c2ccccc2)C3c2ccc(C)cc2)cc1` (stereo not given), the EC50 is more than 200 µM and the IC50 was more than 200 µM. As to `Cc1cc(C)c(S(=O)(=O)N(CCCN)OCCCN)c(C)c1`, the EC50 was more than 200 µM and the IC50 is 195 µM. As for `C1CSC(=[N+]2CC[N+](=C3SCCS3)CC2)S1`, the result was inactive. For `O=C1c2ccccc2C(=O)c2c(Nc3cccc4c3C(=O)c3ccccc3C4=O)cccc21`, the EC50 was more than 200 µM and the IC50 was more than 200 µM.

With `COC(=O)c1cc2c3c(c1)Oc1cc(C(=O)OC)cc4c1C3c1c(cc(C(=O)OC)cc1O4)O2`, the EC50 is more than 200 µM and the IC50 was determined as 55 µM. On the same counts, the results for `O=P(O)(O)OC1C(OP(=O)(O)O)C(OP(=O)(O)O)C(OP(=O)(O)O)C(OP(=O)(O)O)C1OP(=O)(O)O` (stereo not given) are more than 200 µM and more than 200 µM.

Take `COC(=O)/C(=N/NC(C)(C)C)C(C(=O)C=C(C)C)C(=O)C(=O)Nc1ccc(Cl)cc1C` (stereo not given): the EC50 was more than 398 µM and the IC50 turned out to be 269 µM. On the same counts, the results for `CCC(C)[C@H](NC(=O)c1ccccc1S)C(=O)O` (stereo not given in full) are 8.51 µM and 110 µM. `N#Cc1c(N)n(-c2cccc(C(=O)O)c2)c(=O)c2cc([N+](=O)[O-])ccc12`: the EC50 is more than 200 µM and the IC50 is more than 200 µM. In the case of `COc1cc2c(cc1O)N=C[C@@H]1CCC(O)N1C2=O` (mixture of isomers), the EC50 is more than 324 µM and the IC50 came to 0.575 µM. With `COc1ccc(-c2c(-c3ccccc3)c(C)nc3nc(SC)nc(SC)c23)cc1OC`, the EC50 was more than 200 µM and the IC50 turned out to be 11.5 µM.

With `CCc1ccc(N=Cc2cc(OC)c(OC)c(OC)c2)cc1`, the EC50 is more than 33.1 µM and the 50% inhibitory concentration (IC50) is more than 33.1 µM. `COc1ccc(/C=C/C(=O)OCCc2ccccc2)cc1OC`: the EC50 was more than 25.1 µM and the IC50 was more than 25.1 µM. Regarding `Cc1ccc(C(=O)Oc2ccc(/C=C3\CCC/C(=C\c4ccc(OC(=O)c5ccc(C)cc5)cc4)C3=O)cc2)cc1`, the EC50 is more than 100 µM and the IC50 is more than 100 µM.

On to `CC1(C)COC(C23C4C5C2C2C3C4C52I)=N1` (stereo not given), for which the EC50 is more than 79.4 µM and the IC50 is more than 79.4 µM. As for `COC(=O)Cc1c([C@H]2[C@H](CC(=O)OC)c3ccccc3N2C(C)=O)[nH]c2ccccc12`, the EC50 is more than 200 µM and the IC50 turned out to be 97.7 µM. On the same counts, the results for `COC(=O)C(=O)/C=C(\O)c1ccc(Cl)cc1` are more than 200 µM and more than 200 µM.

As to `CCOC(=O)Cc1c(C)c2ccc(OC(C)=O)c(OC(C)=O)c2oc1=O`, the EC50 was more than 200 µM and the IC50 was 36.3 µM. On the same counts, the results for `O=C(CC(C(=O)c1ccc(F)cc1)c1ccsc1)c1cccs1` (stereo not given) are more than 200 µM and more than 200 µM.
